In patent publication US9950005B2, “Compositions comprising biomembrane sealing agent for treatment of neuronal injury, and methods of use” (WARSAW ORTHOPEDIC, INC., priority 2006, dated 2018):

How the values were obtained:
Assay type in all cases: in vivo, rat
[1] = test system: carrageenan-induced hind paw acute inflammation; test: Carrageenan hind paw acute inflammation model, mechanical allodynia (up-down method); conditions: Example 7, 24 h after carrageenan
Description: Animals were treated with saline (0.5% final), indomethacin, PEG, magnesium or combined PEG+magnesium solutions. Each animal received 2 injections, the first one 1 hour following carrageenan injection and the second injection 6 hours later. The total dose of PEG and magnesium chloride administered was of 2 and 0.135 g/kg (body weight) respectively. There were 10 animals per group.
Indomethacin (Fluka, cat. 57413, lot 450544/1) was dissolved in 25% hydroxyl-propyl beta cyclodextrin (hpBCD) by gentle heating and stirring. The PEG solution was composed of PEG3350 at 30% in 0.5% saline, the magnesium solution was composed of magnesium chloride at 2% and the combined PEG+magnesium solution was composed of 30% PEG3350+2% Magnesium Chloride (custom made by AAIPharma Developmental Services, Wilmington, N.C.). […]
Twenty-four hours following carrageenan injection into the left paw, the same paw was tested for mechanical allodynia. Baseline and post-treatment values for non-noxious mechanical sensitivity were evaluated using 8 Semmes-Weinstein filaments (Stoelting, Wood Dale, Ill., USA) with varying stiffness (0.4, 0.7, 1.2, 2.0, 3.6, 5.5, 8.5, and 15 g) according to the up-down method (Chaplan et al., 1994). […]
To evaluate the significance of difference between experimental groups, data were analyzed using an unpaired, two-tailed t statistical test with confidence intervals of 95%.

[2] = test system: controlled cortical impact model of brain injury; test: Morris Water Maze test of cognitive function after controlled cortical impact TBI
Excerpt: Male Sprague-Dawley rats (Harlan Sprague-Dawley, Indianapolis, Ind.), weighing 350-450 grams each were given free access to food and water before the experiment. The animals were anesthetized with halothane (1% in 70%/30% […] by mask).
The controlled cortical impact model of brain injury utilized in this study has been described in detail (Scheff and Sullivan, 1999). Animals were anesthetized with isoflorane and placed in a stereotaxic frame in the […] position. A 6 mm craniotomy located approximately midway between bregma and lambda, just above the somatosensory cortex, was made using a Michele trephine. The skull disk was then removed without disturbing the underlying dura mater. The exposed brain was injured using an electronically controlled piston (5 mm diameter, 65 kdynes). The animals in the “sham” group underwent identical surgical procedures, but the surface of the brain was not impacted.
Following surgery, animals were placed in their home cage and dosing was initiated. Animals were treated with saline (Group 1: sham, Group 2: injured), PEG (Group 3: injured), magnesium (Group 4: injured) or a combination of PEG and magnesium solutions (Group 5: injured). The PEG solution was composed of PEG3350 at 30% in 0.5% saline (custom made by AAIPharma Developmental Services, Wilmington, N.C.). […] The magnesium solution was diluted in saline 1:1 before intravenous injection as recommended by the manufacturer. In the cases of combined PEG+Mg combined treatments, animal received the PEG and magnesium components from two individual solutions.
The first two injections were administered 15 minutes following injury. Another round of two injections was given 6 hours later. […] The compounds tested were administered by bolus intravenous injection. There were 10 animals per group.
This behavioral endpoint measure the ability of the rat to learn a new task based on the memorization of spatial cues. […]. […]
To evaluate the significance of difference between experimental groups, data were analyzed using an unpaired, two-tailed t statistical test with confidence intervals of 95%. […]

[3] = test system: controlled clip-compression injury at T4; test: Neuropathic pain (mechanical allodynia, Semmes-Weinstein monofilament) after SCI; conditions: Example 6; mechanical allodynia up to 3 weeks post-injury
Description: Animals were prepared as described in Example 3. Animals were tested for the development of neuropathic pain before and up to 3 weeks post-injury. Neuropathic pain occurrence and severity was evaluated by the response of the animal to a stimulus that is normally not painful or allodynia. […] The monofilament was applied 10 times for 3 seconds, with each stimulus being separated by a 5 second interval, and the number of avoidance responses out of a possible 10 were recorded. Avoidance responses were defined as flinching, escape, vocalization, or abnormal aggressive behaviors. The scoring system used to monitor mechanical allodynia has been presented in details in Gris et al., 2004. Mechanical allodynia testing was conducted twice per week and the 2 tests were averaged for each animal and reported as a weekly pain score. To evaluate the significance of difference between experimental groups, data were analyzed using an unpaired, two-tailed t statistical test with confidence intervals of 95%. The Welch's modification was also used to analyze the motor recovery to take in account the significant variability in the control group.

[4] = test system: spinal cord contusion (T10, pneumatic impactor); test: Spinal cord lesion volume after spinal cord contusion (dural impact); conditions: Example 4, total PEG 2 g/kg, magnesium sulfate 0.12 g/kg i.v., PEG change not statistically significant
Description: Sprague-Dawley female rats (200-225 gm) received a spinal cord contusion using the Precision Scientific Inc pneumatic impactor. Prior to surgery, rats were assigned to different treatment groups based on a randomized block design so that on any given surgery day all treatments would be included. […] The vertebral column was stabilized with angled clamps on the upper thoracic (T8) and lumbar (T11) levels and the impactor with a tip diameter of 2 mm was delivered at approximately 50 kd onto the exposed, intact dura overlying the dorsal spinal cord. The impactor was immediately removed, the wound irrigated with saline, and the muscle and skin openings sutured together. Female animals were used due to the paralysis associated with the injury and ease of voiding the bladder.
At the end of the study, the spinal cords were extracted and fixed in 4% paraformaldehyde. […] Tissue sparing was determined by computed image analysis be from 10 evenly spaced sections through the injured T10 segment. […]

## COc1ccc2c(c1)c(CC(=O)O)c(C)n2C(=O)c1ccc(Cl)cc1 [Indomethacin]
[1]; carrageenan-saline 3.4+/−0.5, sham 12.7+/−1.1, higher is better
  mean pain score (mechanical allodynia): 5.6+/−0.9

## O=S(=O)([O-])[O-].[Mg+2] [Mg, magnesium sulfate]
[2]; Example 1, i.v. 15 min and 6 h post-injury, total PEG 1.4 g/kg, magnesium sulfate 0.230 mmol/kg, Morris Water Maze day 9-14
  effect on cognitive functions following TBI: no effect
[3]
  effect on the development of neuropathic pain after SCI: no significant effect
[4]
  reduction of the lesion volume relative to control group (SCI-Saline): 33%

## [Cl-].[Cl-].[Mg+2] [magnesium chloride]
[2]; Example 2, total 1.4 g/kg PEG, 0.230 mmol/kg magnesium chloride, 2 injections 15 min and 6 h post-TBI
  effect on cognitive recovery after TBI: no significant effect
[2]; summary statement in description
  effect on the loss of cognitive functions following brain injury: no effect
[1]; total PEG 2 g/kg, magnesium chloride 0.135 g/kg
  effect on the pain score relative to animals treated with saline: no significant effect
